Calls of active or inactive are those of the source.
Legend:
[1] = target: Eukaryotic translation initiation factor 4H (Homo sapiens, UniProt Q15056); assay: eIF4H inhibition in translation initiation, SAR follow-up (AID 435011); assay type: functional
[2] = target: Polyadenylate-binding protein 1 (Homo sapiens, UniProt P11940); assay: PABP inhibition in translation initiation, SAR follow-up (AID 435018); assay type: functional
Large T antigen = Large T antigen (Simian virus 40, UniProt P03070); assay: A confirmatory biochemical assay using the ADP-Hunter methodology, purified TAg, and ATP to quantify activity of synthesized compounds that inhibit the ATPase activity of Tag (3). [Related pubchem assays (depositor defined):AID1903, AID1909, AID2102, AID2501, AID2615, AID2775, AID435001, AID449729]; set-up: species or system Betapolyomavirus macacae
[3] = target: T1, Delta-type opioid receptor (Homo sapiens, UniProt P41143); assay: DOR agonists, SAR follow-up, image-based (AID 2370); assay type: functional
[4] = target: T2, Kappa-type opioid receptor (Homo sapiens, UniProt P41145); assay type: functional
[5] = target: T2, Kappa-type opioid receptor; assay: KOR antagonists by imaging, SAR follow-up, image-based (AID 2348); assay type: functional
Mu-type opioid receptor [6] = target: T3, Mu-type opioid receptor (Homo sapiens, UniProt P35372); assay: MOR agonists by imaging, SAR follow-up, image-based (AID 2352); assay type: functional
Mu-type opioid receptor [7] = target: T3, Mu-type opioid receptor; assay: MOR antagonists, SAR follow-up, image-based (AID 2420); assay type: functional;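 further: compounds added before stimulation of receptor with agonist DAMGO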
[8] = target: T2, Kappa-type opioid receptor; assay type: functional; remark: listed apart in the source
[9] = target: T1, Delta-type opioid receptor; assay: DOR antagonists, SAR follow-up, image-based (AID 2357); assay type: functional
[10] = target: T4, Corticotropin-releasing factor receptor 2/Corticotropin-releasing factor-binding protein (Homo sapiens, UniProt P24387+Q13324); assay: Dose Response confirmation of uHTS hits for small molecule antagonists of the CRF-binding protein and CRF-R2 receptor complex.; assay type: functional; conditions: read-out: IC50_Mean
T4 sequence (Q13324 whole entry): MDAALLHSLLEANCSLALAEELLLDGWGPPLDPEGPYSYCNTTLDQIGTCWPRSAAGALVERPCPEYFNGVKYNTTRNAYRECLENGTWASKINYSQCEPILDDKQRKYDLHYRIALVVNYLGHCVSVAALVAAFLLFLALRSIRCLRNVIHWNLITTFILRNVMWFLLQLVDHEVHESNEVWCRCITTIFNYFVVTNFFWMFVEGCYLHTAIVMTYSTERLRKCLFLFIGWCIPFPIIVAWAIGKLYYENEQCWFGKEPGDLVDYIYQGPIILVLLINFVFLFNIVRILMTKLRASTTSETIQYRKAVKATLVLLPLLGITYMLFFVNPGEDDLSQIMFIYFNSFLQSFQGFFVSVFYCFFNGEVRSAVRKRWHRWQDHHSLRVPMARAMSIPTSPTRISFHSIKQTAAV
T4 sequence (P24387 whole entry): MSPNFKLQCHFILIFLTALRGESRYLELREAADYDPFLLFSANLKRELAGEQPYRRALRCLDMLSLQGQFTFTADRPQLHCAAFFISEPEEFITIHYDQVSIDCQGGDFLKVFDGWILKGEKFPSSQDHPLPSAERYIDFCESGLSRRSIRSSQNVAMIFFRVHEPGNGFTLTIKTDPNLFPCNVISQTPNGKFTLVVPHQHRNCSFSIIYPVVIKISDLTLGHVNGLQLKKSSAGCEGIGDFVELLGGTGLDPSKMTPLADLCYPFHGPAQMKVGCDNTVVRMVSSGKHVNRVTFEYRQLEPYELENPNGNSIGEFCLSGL

[11] = target: Intestinal-type alkaline phosphatase (Homo sapiens, UniProt P09923); assay: Dose Response confirmation of uHTS hits from a small molecule inhibitors of human intestinal alkaline phosphatase via a luminescent assay. [Related pubchem assays (depositor defined):AID2544, AID2574]; assay type: functional
[12] = target: T4, Corticotropin-releasing factor receptor 2/Corticotropin-releasing factor-binding protein; assay: activators of CRF receptor 2 with binding protein – uHTS hits, confirmation (AID 602473); assay type: functional; conditions: read-out: EC50_Mean
[13] = viability loss in HRASV12 DRD fibroblasts, dose response, cell-based, DRD BJ fibroblasts, dry powder (AID 493049); assay type: functional
[14] = cytotoxicity in BJeH fibroblasts, dose response, counter-screen for Ras selective lethality project, BJeH cells, dry powder (AID 493054); assay type: functional, cell-based
[15] = viability loss in BJeLR (HRASV12) cells, primary screen, Ras selective lethality project, cell-based, Alamar Blue, dry powder (AID 493045); assay type: functional
[16] = cytotoxicity in BJeHLT fibroblasts, dose response, counter-screen for Ras selective lethality project, BJeHLT cells, dry powder (AID 493052); assay type: functional, cell-based; conditions: Homo sapiens
[17] = inhibition of K1F phage lysis, E. coli UTI89, bacterial capsule biogenesis inhibitors, alamar blue (AID 488966); assay type: functional
[18] = target: G-protein coupled receptor 35 (Homo sapiens, UniProt Q9HC97); assay: GPR35 antagonists blocking zaprinast-driven arrestin recruitment, primary screen, imaging, U2OS, beta-arrestin-GFP, zaprinast agonist (AID 2058); assay type: functional;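 further: antagonist potency meaning inhibition of agonist-induced arrestin redistribution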
Protein RecA = target: T5, Protein RecA (Mycobacterium tuberculosis, UniProt P9WHJ3); assay: Fluorescence Cell-Free Homogeneous Dose Retest to Identify Inhibitors of RecA-Intein Splicing Activity. [Related pubchem assays (depositor defined):AID2097, AID2223, AID489010, AID492950]; assay type: functional
T5 sequence (P9WHJ3 whole entry): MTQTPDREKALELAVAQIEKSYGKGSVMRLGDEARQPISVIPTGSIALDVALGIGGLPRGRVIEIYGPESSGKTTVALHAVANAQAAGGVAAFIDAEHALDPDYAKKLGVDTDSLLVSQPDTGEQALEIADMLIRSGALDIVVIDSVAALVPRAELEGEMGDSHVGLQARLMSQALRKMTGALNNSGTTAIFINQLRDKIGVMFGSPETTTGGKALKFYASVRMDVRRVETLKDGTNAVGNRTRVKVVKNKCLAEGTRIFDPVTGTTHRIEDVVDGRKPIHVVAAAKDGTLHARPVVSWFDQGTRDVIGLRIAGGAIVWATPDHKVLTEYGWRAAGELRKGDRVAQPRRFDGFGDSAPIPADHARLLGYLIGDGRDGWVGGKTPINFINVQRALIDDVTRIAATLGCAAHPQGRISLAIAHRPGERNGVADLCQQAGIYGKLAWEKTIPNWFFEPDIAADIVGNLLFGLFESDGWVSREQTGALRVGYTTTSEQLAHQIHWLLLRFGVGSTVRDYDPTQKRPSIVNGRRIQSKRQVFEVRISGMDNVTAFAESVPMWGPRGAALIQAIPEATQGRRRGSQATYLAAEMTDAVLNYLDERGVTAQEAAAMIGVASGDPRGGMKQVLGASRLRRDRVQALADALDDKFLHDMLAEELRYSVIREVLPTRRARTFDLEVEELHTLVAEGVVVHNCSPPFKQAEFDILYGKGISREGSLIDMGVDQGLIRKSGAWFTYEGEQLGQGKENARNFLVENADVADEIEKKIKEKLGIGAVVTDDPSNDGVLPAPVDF

[19] = target: T6, Replicative DNA helicase DnaB (Mycobacterium tuberculosis, UniProt P9WMR3); assay: DnaB intein splicing inhibitors, dose response, biochemical, cell-free fluorescence (AID 449749); assay type: functional
T6 sequence (P9WMR3 whole entry): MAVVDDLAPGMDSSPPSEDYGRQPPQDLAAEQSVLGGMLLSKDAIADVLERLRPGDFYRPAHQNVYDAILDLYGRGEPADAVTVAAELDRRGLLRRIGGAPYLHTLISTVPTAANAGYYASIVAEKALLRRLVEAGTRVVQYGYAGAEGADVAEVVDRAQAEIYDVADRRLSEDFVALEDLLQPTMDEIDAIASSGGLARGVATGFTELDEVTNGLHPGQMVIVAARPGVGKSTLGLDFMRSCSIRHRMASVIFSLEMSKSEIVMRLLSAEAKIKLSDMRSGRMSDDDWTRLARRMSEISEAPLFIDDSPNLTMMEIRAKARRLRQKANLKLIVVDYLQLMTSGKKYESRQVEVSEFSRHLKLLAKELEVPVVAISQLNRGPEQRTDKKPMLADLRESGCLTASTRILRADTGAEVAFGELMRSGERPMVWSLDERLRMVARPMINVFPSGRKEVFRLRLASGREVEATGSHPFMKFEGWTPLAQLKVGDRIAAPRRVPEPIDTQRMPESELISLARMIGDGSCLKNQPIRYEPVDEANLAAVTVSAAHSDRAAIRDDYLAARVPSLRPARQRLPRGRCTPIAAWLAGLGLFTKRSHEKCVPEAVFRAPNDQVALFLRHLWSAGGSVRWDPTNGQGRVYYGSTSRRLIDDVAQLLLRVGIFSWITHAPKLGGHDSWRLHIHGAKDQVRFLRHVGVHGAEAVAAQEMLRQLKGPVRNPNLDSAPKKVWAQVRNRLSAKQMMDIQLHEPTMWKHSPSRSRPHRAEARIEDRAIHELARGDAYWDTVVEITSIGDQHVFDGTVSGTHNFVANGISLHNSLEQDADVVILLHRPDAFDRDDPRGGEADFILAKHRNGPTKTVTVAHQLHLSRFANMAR

[20] = target: T7, Neuropeptide Y receptor type 1 (Homo sapiens, UniProt P25929); assay type: functional;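 further: HEK293 cells with a CNG channel challenged with NPY then isoproterenol; potency as antagonist that reverses NPY suppression of cAMP signal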
T7 sequence (P25929 whole entry): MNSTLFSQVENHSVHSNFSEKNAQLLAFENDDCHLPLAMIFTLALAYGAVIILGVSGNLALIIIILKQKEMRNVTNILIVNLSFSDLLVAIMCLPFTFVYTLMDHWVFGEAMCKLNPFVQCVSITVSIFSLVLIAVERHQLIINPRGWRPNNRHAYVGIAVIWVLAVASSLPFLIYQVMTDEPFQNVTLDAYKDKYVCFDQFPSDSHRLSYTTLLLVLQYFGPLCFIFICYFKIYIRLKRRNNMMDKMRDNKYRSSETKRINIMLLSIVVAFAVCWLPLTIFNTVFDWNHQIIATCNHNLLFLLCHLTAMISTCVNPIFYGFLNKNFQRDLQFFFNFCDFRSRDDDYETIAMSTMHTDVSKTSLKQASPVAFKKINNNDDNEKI

Saccharomyces cerevisiae = assay: NALP1 inhibitor project selectivity study, Caspase-1/ASC signal blockade IC50 in S. cerevisiae (AID 488863); assay type: functional, organism-based
[21] = target: Luciferin 4-monooxygenase (Photinus pyralis, UniProt P08659); assay: firefly luciferase enzyme inhibitors, dose response, biochemical, luminescence (AID 1891)
[22] = Luminescence Cell-Based Dose Confirmation HTS to Identify Inhibitors of Platelet Dense Granule Release. [Related pubchem assays: 1663 (Primary HTS), 1678 (Summary of Project)]; assay type: functional
[23] = target: NACHT, LRR and PYD domains-containing protein 1 (Homo sapiens, UniProt Q9C000); assay: NALP1 inhibitors in yeast, dose response, luminescent (AID 488860); assay type: functional
[24] = target: T8, Neuropeptide Y receptor type 2 (Homo sapiens, UniProt P49146); assay type: functional, cell-based;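 further: HEK293 cells expressing the receptor and a CNG channel; stimulus was NPY near EC95 followed by isoproterenol to raise cAMP; antagonist potency measured as restoring cAMP signal that NPY suppresses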
T8 sequence (P49146 whole entry): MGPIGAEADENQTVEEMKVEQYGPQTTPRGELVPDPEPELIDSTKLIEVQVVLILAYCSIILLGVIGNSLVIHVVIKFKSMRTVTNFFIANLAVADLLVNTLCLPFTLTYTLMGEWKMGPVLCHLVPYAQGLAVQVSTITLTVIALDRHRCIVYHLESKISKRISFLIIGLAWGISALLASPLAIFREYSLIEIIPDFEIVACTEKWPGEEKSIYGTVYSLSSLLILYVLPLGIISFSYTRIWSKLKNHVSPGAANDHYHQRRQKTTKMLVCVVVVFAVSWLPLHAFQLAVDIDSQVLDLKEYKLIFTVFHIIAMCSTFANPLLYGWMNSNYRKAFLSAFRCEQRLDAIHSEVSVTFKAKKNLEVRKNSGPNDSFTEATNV

T2 sequence (P41145 whole entry): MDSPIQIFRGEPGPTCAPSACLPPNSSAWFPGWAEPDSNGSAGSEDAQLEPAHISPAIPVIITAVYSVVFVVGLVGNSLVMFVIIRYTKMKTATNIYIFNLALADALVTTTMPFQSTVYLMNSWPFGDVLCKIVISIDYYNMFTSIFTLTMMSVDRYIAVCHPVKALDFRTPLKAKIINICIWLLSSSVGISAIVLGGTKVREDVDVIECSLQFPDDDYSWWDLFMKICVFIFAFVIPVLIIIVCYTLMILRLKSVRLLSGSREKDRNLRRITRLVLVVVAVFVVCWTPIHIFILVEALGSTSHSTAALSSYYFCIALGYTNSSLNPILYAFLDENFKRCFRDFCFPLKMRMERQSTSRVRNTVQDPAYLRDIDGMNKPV
T3 sequence (P35372 whole entry): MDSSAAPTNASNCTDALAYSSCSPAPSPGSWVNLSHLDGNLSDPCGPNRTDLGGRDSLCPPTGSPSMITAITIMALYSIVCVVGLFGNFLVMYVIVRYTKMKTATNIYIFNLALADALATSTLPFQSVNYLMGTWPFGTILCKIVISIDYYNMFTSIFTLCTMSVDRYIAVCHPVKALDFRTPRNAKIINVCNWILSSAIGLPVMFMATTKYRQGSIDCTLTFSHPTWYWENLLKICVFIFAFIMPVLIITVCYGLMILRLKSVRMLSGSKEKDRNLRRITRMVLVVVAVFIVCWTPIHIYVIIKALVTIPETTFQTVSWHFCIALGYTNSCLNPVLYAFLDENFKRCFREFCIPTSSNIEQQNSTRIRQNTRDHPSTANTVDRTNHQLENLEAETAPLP
T1 sequence (P41143 whole entry): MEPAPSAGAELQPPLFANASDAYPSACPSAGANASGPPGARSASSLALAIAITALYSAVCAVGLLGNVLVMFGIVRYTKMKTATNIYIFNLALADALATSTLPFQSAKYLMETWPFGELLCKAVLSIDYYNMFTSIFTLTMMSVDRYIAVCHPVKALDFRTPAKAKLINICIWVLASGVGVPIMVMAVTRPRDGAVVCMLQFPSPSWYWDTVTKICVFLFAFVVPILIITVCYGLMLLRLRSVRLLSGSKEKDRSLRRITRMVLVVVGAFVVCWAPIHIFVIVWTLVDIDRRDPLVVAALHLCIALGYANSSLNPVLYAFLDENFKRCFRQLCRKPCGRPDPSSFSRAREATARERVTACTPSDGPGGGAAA
NACHT, LRR and PYD domains-containing protein 1, sequence (Q9C000 1-1212 limits assumed): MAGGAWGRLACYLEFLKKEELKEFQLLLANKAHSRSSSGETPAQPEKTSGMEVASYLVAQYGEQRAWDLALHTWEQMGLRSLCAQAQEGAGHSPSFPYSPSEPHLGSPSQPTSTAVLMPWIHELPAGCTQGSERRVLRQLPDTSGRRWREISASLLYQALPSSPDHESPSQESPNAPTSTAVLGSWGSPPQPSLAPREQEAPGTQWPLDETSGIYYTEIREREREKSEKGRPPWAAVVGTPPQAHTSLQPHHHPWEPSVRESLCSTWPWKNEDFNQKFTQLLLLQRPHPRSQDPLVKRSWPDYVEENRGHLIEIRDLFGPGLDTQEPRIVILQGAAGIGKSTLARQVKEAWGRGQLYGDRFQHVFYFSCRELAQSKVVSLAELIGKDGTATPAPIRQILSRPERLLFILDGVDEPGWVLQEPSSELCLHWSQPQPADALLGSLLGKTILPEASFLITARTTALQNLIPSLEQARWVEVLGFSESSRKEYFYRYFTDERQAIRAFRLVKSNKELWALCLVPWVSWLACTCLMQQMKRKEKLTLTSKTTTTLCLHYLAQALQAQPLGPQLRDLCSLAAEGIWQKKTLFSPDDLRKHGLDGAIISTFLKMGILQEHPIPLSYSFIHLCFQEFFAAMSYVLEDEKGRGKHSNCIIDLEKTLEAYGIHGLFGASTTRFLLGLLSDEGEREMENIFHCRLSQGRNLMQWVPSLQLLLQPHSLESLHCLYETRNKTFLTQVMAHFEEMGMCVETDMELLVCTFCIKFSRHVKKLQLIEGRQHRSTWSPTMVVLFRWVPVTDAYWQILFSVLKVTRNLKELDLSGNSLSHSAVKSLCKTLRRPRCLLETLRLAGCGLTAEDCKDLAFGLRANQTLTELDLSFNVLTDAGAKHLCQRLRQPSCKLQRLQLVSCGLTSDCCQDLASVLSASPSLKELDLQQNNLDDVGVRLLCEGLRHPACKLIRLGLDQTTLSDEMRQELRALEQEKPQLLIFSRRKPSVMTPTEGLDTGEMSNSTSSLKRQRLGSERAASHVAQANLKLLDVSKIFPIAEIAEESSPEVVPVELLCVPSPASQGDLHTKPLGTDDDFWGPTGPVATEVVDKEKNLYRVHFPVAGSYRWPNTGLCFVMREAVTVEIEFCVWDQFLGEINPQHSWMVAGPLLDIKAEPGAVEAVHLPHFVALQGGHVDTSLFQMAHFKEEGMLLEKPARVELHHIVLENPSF
NACHT, LRR and PYD domains-containing protein 1, sequence (Q9C000 1213-1473 limits assumed): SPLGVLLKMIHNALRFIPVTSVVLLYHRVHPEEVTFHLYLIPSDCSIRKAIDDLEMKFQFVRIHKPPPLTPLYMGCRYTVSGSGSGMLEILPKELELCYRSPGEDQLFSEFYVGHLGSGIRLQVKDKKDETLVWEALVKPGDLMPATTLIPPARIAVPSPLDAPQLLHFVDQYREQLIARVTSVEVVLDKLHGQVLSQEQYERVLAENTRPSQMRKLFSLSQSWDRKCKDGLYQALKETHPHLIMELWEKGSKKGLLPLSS
Intestinal-type alkaline phosphatase, sequence (P09923 whole entry): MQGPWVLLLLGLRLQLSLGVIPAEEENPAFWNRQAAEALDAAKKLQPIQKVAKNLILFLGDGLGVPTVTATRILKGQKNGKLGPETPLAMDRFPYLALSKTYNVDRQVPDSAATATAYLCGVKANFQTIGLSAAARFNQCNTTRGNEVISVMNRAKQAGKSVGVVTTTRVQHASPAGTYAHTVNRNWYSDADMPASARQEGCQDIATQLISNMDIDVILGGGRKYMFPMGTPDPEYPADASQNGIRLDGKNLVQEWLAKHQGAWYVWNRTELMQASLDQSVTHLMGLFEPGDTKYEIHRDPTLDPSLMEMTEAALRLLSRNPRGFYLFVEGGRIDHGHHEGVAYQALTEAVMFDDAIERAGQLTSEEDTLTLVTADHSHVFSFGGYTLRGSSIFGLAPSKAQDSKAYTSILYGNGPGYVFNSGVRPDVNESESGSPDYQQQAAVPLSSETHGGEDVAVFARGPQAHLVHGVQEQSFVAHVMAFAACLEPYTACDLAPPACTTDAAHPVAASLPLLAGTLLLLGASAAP
Polyadenylate-binding protein 1, sequence (P11940 whole entry): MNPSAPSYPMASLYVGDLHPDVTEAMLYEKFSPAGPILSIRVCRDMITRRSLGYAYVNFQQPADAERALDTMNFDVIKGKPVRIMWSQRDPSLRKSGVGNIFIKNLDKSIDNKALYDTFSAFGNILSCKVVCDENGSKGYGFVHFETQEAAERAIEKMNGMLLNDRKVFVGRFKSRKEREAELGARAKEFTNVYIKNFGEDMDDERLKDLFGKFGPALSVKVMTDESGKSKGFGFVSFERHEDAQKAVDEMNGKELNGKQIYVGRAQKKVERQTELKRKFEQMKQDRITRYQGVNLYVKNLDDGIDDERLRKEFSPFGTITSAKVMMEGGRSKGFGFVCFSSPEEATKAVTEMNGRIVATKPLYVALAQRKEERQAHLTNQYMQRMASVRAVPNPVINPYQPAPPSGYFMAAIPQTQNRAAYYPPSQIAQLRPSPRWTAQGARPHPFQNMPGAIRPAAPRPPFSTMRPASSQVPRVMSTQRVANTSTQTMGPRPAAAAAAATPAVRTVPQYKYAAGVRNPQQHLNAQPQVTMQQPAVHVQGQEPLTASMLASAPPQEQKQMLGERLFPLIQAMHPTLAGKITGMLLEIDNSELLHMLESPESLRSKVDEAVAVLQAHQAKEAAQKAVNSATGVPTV
G-protein coupled receptor 35, sequence (Q9HC97 whole entry): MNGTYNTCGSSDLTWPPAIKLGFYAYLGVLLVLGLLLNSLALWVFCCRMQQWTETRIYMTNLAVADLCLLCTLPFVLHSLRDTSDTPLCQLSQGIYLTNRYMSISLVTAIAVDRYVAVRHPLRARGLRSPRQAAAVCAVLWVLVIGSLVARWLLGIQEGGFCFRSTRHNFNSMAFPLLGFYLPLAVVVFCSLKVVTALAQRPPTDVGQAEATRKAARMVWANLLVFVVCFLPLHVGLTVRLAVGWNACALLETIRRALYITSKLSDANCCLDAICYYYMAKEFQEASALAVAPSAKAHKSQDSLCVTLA
Luciferin 4-monooxygenase, sequence (P08659 whole entry): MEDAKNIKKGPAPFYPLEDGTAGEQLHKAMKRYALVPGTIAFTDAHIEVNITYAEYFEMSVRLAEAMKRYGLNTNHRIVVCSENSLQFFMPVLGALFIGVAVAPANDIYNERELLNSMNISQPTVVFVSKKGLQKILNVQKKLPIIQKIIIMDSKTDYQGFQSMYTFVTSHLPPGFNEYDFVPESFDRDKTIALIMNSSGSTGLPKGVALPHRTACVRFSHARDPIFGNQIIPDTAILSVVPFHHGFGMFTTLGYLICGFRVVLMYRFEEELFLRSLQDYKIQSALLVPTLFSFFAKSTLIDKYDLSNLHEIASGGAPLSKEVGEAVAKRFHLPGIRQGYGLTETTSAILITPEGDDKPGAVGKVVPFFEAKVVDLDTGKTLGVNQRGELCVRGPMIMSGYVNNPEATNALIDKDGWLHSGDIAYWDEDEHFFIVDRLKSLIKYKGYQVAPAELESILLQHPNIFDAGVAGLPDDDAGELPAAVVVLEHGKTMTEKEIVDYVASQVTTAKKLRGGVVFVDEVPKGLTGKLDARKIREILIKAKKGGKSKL

Compound: COc1ccccc1N=C1SC(C(=O)Nc2ccc(F)cc2)CC(=O)N1C (configuration not stated)
- IC50 [1]: > 100 µM (inactive)
- IC50 [2]: > 100 µM (inactive)

Compound: Oc1ccc(Oc2ccc(O)cc2)cc1
- IC50 (Large T antigen): 37.7 µM (active)

Compound: CC(C)(C)c1ccc(CSc2nnc(-c3ccccn3)n2Cc2ccco2)cc1
- EC50 [3]: > 32 µM (inactive)
- EC50 [4]: 2.18 µM
- IC50 [5]: > 32 µM (inactive)
- EC50 (Mu-type opioid receptor [6]): > 32 µM (inactive)
- IC50 (Mu-type opioid receptor [7]): > 32 µM (inactive)
- EC50 [8]: 1.02 µM
- IC50 [9]: > 32 µM (inactive)

Compound: Cc1ccccc1CNC(=O)c1ccccc1N
- IC50 [10]: > 47.1 µM (inactive)
- IC50 [11]: > 100 µM (inactive)
- EC50 [12]: > 53 µM (inactive)

Compound: COc1ccc(N(C(=O)CCl)C(C(=O)NCc2ccccc2)c2cccs2)cc1Cl (configuration not stated)
- AC50 [13]: 0.098 µM (active)
- AC50 [14]: 0.336 µM (active)
- AC50 [15]: 0.075 µM (active)
- AC50 [16]: 0.179 µM (active)

Compound: CC/C(=C(/c1ccccc1)c1ccc(OCC[N+](C)(C)C)cc1)c1ccccc1
- IC50 [17]: > 150 µM (active)

Compound: CC1(CC(=O)N/N=C/c2ccc(OCc3ccc(Cl)cc3Cl)cc2)OCCCO1
- IC50 [18]: < 0.5 µM (active)
- EC50 (Protein RecA): 11.1 µM (active)
- AC50 [19]: 3.09 µM (active)

Compound: COc1cc(/C=N/n2cnnc2)ccc1OCc1ccc(C)cc1
- IC50 [20]: 7.08 µM (active)
- IC50 (Saccharomyces cerevisiae): > 100 µM (inactive)
- EC50 [21]: > 112 µM (not active)
- EC50 [22]: 20.8 µM (active)
- IC50 [23]: > 100 µM (inactive)
- IC50 [24]: 4.18 µM (active)
